{"source": "ChEMBL document CHEMBL5465560", "about": "“Selectivity Literature for EUbOPEN Chemogenomic Library” (2024)", "key": {"[1]": {"target": "T1, Serine/threonine-protein kinase D3 (Homo sapiens) (UniProt O94806)", "T1 sequence (whole entry)": "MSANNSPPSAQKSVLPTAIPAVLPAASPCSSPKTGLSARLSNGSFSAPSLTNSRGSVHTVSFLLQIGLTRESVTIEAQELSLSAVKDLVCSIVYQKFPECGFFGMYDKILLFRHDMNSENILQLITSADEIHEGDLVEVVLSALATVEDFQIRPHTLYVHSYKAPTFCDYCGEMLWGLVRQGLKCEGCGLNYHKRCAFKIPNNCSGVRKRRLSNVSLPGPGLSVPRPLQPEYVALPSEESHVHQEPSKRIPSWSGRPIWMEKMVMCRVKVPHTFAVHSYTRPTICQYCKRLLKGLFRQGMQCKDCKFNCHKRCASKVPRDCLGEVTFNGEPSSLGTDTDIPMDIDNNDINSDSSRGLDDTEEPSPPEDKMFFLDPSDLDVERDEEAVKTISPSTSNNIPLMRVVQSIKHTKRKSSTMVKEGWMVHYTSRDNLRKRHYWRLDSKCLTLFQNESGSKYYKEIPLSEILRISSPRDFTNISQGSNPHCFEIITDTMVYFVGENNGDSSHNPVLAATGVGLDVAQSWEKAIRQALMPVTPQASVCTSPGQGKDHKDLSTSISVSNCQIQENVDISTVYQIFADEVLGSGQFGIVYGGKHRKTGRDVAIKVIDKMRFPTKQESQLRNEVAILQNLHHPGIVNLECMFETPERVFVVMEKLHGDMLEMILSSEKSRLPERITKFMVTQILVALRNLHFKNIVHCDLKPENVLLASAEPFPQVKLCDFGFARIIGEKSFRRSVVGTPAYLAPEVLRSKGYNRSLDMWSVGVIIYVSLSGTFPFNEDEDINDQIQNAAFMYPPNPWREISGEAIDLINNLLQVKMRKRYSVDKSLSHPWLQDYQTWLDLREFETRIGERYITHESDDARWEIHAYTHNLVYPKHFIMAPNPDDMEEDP", "experiment": "Selectivity interaction (KinomeScan (DiscoverX)) EUB0000045b PRKD3"}, "[2]": {"target": "Proto-oncogene tyrosine-protein kinase ROS (Homo sapiens) (UniProt P08922)", "sequence (P08922 whole entry)": "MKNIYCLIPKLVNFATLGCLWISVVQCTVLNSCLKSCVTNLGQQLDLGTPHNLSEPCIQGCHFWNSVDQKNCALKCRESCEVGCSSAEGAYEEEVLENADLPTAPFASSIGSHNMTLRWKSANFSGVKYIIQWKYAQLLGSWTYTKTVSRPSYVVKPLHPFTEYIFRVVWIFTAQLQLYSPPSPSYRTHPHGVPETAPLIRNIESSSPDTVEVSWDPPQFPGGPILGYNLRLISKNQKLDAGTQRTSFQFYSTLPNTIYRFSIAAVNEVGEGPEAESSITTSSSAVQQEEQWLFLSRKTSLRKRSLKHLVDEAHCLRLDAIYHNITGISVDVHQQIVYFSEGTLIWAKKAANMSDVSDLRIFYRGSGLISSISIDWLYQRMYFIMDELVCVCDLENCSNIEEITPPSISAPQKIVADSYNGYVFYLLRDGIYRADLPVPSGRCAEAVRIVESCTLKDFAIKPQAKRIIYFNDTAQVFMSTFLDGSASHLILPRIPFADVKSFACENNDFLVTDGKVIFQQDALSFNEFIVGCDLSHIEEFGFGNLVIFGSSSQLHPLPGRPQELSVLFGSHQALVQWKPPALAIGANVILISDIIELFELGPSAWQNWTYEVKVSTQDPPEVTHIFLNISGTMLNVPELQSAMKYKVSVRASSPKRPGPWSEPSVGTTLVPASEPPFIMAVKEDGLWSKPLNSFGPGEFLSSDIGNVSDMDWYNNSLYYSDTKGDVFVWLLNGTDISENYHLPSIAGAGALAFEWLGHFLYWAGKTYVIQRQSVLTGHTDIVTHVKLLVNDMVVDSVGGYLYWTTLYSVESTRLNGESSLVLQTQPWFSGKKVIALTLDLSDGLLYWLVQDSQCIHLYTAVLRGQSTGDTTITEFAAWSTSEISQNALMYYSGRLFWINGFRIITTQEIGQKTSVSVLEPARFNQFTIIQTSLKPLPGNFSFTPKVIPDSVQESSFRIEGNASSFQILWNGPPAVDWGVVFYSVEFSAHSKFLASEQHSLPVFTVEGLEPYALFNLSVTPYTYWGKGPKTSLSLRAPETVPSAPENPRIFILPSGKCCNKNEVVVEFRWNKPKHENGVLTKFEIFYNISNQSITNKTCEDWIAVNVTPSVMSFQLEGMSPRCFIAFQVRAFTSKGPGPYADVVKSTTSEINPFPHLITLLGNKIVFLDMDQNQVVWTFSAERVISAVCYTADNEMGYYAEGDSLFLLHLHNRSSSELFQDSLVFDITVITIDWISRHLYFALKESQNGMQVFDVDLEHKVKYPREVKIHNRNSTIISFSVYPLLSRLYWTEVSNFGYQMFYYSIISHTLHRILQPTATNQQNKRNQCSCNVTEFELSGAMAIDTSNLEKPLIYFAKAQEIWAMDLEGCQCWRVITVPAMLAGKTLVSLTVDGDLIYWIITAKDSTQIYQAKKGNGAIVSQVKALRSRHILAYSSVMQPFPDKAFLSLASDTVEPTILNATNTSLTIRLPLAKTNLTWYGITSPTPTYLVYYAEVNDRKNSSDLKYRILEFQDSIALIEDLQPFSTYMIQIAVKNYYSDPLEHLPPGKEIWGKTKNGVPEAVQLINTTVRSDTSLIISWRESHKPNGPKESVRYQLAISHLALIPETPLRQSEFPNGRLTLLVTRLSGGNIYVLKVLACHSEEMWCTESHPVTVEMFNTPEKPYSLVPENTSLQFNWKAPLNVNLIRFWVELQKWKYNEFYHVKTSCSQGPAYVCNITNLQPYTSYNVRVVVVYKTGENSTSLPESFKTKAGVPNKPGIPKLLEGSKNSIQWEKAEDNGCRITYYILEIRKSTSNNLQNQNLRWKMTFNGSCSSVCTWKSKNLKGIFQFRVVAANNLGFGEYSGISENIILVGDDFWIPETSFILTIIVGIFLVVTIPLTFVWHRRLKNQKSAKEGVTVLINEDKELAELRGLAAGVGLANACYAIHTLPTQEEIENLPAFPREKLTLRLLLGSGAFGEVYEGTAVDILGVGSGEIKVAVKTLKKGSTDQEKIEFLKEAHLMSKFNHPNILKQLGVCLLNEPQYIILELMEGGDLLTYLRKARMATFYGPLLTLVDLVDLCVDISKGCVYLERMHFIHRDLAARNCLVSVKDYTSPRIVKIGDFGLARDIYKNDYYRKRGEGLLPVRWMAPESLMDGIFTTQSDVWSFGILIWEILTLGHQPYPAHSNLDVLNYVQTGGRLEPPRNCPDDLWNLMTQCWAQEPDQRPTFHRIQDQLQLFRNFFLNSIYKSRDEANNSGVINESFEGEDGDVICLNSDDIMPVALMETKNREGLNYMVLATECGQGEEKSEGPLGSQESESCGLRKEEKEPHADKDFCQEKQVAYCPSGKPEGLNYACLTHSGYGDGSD", "experiment": "Selectivity interaction (KinomeScan (DiscoverX)) EUB0001079a ROS1", "conditions": "at 1 µM"}, "[3]": {"target": "T2, Tyrosine-protein kinase JAK3 (Homo sapiens) (UniProt P52333)", "T2 sequence (whole entry)": "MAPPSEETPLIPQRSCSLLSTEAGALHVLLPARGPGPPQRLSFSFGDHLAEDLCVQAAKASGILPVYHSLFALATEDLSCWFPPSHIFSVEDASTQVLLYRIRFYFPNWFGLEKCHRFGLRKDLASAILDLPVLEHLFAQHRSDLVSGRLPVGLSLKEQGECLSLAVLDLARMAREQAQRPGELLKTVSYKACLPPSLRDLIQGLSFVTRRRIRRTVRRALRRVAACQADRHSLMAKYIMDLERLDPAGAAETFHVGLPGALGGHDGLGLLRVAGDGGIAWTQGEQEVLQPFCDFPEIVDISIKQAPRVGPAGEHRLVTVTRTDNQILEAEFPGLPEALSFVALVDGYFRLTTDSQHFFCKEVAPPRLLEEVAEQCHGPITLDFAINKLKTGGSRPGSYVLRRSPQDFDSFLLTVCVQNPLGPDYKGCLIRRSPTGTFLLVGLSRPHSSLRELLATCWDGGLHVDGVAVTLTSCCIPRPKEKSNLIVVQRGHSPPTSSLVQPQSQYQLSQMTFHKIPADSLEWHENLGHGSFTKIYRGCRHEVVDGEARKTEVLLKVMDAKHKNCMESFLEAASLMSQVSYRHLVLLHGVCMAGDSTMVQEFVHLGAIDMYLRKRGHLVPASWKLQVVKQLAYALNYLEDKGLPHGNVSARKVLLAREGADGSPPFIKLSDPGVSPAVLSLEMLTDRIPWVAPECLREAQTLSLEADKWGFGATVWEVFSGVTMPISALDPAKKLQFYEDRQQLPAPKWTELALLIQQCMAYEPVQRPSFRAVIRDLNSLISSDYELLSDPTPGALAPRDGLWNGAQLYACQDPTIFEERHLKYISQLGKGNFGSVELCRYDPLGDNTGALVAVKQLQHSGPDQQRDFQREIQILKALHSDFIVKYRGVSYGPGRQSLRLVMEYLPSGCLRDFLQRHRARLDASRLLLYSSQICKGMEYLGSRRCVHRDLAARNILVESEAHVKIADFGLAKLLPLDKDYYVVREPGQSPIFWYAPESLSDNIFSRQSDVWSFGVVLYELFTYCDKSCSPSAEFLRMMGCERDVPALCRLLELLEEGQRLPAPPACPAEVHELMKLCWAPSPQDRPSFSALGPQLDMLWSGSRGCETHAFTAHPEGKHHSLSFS", "experiment": "Selectivity interaction (ActivX KiNativ screen (ex vivo kinase selectivity in human PBMCs)) EUB0001619a JAK3", "format": "cell-based", "conditions": "PBMC, at 1 µM"}, "[4]": {"target": "Tyrosine-protein kinase JAK2 (Homo sapiens, UniProt O60674)", "sequence (O60674 whole entry)": "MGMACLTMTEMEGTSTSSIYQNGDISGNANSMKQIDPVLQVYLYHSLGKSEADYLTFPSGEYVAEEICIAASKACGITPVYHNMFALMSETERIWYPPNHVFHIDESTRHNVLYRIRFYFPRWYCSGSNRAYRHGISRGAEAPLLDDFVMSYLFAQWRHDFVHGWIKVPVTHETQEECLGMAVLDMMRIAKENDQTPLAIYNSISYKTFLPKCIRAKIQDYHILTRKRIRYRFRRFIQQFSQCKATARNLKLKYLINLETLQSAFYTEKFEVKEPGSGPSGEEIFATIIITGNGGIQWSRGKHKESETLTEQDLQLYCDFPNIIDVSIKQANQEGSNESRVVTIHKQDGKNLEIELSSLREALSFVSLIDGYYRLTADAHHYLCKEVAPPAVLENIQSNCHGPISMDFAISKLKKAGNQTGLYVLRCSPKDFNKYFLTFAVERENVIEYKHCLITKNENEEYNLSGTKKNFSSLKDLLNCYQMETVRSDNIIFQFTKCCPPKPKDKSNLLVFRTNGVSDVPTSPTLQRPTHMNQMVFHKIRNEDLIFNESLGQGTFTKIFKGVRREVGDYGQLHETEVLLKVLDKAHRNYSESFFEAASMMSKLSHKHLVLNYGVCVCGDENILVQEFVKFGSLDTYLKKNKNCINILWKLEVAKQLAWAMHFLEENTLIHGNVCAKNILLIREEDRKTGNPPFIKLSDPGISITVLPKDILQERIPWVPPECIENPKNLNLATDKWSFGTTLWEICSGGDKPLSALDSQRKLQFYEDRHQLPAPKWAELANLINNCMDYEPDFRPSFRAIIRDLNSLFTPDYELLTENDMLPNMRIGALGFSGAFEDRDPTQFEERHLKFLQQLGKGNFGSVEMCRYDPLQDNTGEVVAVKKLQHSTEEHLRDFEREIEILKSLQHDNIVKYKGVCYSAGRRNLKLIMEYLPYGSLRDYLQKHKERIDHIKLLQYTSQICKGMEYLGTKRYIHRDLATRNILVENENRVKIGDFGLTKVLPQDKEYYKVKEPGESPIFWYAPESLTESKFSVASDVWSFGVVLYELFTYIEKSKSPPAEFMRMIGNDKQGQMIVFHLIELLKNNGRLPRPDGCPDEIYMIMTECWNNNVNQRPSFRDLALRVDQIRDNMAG", "experiment": "Selectivity interaction (KinomeScan (DiscoverX)) EUB0001619a JAK2", "conditions": "at 1 µM"}, "[5]": {"target": "Cyclin-dependent kinase 17 (Homo sapiens) (UniProt Q00537)", "sequence (Q00537 whole entry, looked up)": "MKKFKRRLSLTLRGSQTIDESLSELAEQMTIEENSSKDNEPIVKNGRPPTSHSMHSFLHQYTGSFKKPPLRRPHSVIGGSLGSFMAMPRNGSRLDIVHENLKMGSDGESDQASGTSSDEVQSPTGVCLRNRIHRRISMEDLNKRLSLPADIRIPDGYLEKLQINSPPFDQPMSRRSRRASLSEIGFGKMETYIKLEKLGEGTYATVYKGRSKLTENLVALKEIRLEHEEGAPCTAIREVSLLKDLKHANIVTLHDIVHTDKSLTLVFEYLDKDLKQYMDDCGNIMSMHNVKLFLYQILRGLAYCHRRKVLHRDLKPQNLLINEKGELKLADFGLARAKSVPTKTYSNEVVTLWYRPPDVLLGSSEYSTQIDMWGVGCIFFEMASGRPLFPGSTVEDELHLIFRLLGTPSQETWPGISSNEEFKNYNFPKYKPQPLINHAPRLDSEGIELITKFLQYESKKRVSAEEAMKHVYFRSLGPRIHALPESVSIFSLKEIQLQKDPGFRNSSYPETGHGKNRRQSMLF", "experiment": "Selectivity interaction (ActivX KiNativ screen (ex vivo kinase selectivity in human PBMCs)) EUB0001619a CDK17", "format": "cell-based", "conditions": "PBMC, at 1 µM"}, "[6]": {"target": "5'-AMP-activated protein kinase catalytic subunit alpha-1 (Homo sapiens, UniProt Q13131)", "sequence (Q13131 whole entry, looked up)": "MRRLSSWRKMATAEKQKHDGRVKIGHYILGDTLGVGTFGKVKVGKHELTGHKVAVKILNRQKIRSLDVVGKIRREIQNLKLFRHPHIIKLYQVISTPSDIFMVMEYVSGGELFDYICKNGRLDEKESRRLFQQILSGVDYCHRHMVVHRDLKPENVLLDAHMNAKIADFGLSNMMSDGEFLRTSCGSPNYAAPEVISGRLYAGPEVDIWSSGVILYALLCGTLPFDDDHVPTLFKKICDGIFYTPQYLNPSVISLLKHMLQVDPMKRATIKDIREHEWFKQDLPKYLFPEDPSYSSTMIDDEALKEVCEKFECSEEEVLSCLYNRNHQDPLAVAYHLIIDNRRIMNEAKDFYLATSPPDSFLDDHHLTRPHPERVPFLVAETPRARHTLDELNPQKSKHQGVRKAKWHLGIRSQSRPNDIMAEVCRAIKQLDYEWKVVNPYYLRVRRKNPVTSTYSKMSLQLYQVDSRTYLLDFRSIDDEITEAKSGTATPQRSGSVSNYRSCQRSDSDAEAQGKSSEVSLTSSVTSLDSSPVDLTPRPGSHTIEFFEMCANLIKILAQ", "experiment": "Selectivity interaction (ActivX KiNativ screen (kinase selectivity in THP-1 cell lysates)) EUB0000639a PRKAA1", "format": "subcellular", "conditions": "lysate, at 0.01 µM"}, "[7]": {"target": "Mitogen-activated protein kinase 3 (Homo sapiens, UniProt P27361)", "sequence (P27361 whole entry)": "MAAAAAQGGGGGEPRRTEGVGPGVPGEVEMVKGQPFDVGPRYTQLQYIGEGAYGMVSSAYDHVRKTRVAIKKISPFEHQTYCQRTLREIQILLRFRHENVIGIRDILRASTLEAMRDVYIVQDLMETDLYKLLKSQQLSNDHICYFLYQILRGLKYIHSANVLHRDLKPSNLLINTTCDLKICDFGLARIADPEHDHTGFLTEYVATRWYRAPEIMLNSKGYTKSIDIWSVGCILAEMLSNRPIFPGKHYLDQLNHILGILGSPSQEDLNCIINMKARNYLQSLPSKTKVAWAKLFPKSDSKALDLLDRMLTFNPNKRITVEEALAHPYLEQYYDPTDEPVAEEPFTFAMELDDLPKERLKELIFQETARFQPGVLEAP", "experiment": "Selectivity interaction (Kinase panel (Invitrogen)) EUB0000639a MAPK3", "conditions": "at 200 nM"}}, "data": [{"smiles": "C=CC(=O)Nc1cc(-n2c(=O)ccc3cnc4ccc(-c5ccc(NS(C)(=O)=O)cc5)cc4c32)ccc1C", "values": [{"measurement": "% of control", "setting": "[1]; at 1 µM", "value": 82, "unit": "%"}, {"measurement": "% of control", "setting": "[1]; at 10 µM", "value": 68, "unit": "%"}]}, {"smiles": "Nc1cnc(N2CCc3cc(S(=O)(=O)Nc4c(F)cc(Cl)cc4F)cc(N4CCCC4=O)c32)nc1", "note": "[TP-020n]", "values": [{"measurement": "% of control", "setting": "[2]", "value": 99, "unit": "%"}]}, {"smiles": "N#Cc1cccc(-c2c[nH]c3ncnc(N4CCOCC4)c23)c1", "values": [{"measurement": "% of inhibition", "setting": "[3]", "value": 6, "unit": "%"}, {"measurement": "% of control", "setting": "[4]", "value": 71, "unit": "%"}, {"measurement": "% of inhibition", "setting": "[5]", "value": 25, "unit": "%"}]}, {"smiles": "CC[C@@H]1[C@H](F)C(=O)N[C@@H]1COc1nccc2cc(C(N)=O)c(OC)cc12", "note": "[ZIMLOVISERTIB]", "values": [{"measurement": "% of inhibition", "setting": "[6]", "value": 14.5, "unit": "%"}, {"measurement": "% of inhibition", "setting": "[7]", "value": 4.09, "unit": "%"}]}]}
